How the values were obtained:
Wistar rats = test: Open field test, hypokinetic (sedative) or hyperkinetic action (analgesia examples)
Description: (§1) To evaluate the hypokinetic (sedative) or hyperkinetic action effects of tested drugs an “open field” (OF) test was applied. In the OF test, the locomotive activity of rats is determined. Animals were placed in the center of square of the illuminated field (1 meter×1 meter) for 3 minutes and the mobility time was recorded in seconds (horizontal activity). […] To quantify the locomotive activity for each dose of test drug(s) an average horizontal activity was calculated.
as §1
To evaluate the hypokinetic (sedative) effects of drugs, “open field” (OF) test was applied. In the OF test, the locomotive activity of rats is determined. Animals were placed in the center of square of the illuminated field (1 meter×1 meter) for 3 minutes and the mobility time was recorded in seconds (horizontal activity). […] To quantify the locomotive activity for each dose of test drug(s), an average horizontal activity was calculated.
Tail-Flick and Open Field Tests were Conducted as Detailed Above.
as §1

male Wistar rats = test: Opioid hyperalgesia in tail and paw withdrawal tests (% rats)

CC12CC3CC(C)(C1)CC(N)(C3)C2 [Memantine, memantine]
0 % of Rats: Sedation (Wistar rats; I.M., doses by row as E3)
0 % rats: Hyperkinesia or sedation (Wistar rats; unmarked cells, doses as E6) | Hyperkinesia or sedataion (Wistar rats; unmarked cells, doses as E12) | Hyperkinesia (Wistar rats; unmarked cells, doses as E48) | Hyperkinesia (Wistar rats; unmarked cells, doses as E54) | Hyperalgesia (male Wistar rats; doses as E6) | Hyperalgesia (male Wistar rats; doses as E12) | Hyperalgesia (male Wistar rats; doses as E48) | Hyperalgesia (male Wistar rats; doses as E54)

Source: patent US20200188388A1, “METHODS AND COMPOSITIONS FOR PO[…] DRUGS AND REDUCING THEIR SIDE EFFECTS” (RVX THERAPEUTICS LTD., priority 2016, published 2020)
